# How the values were obtained:
# Test in all cases: SelectScreen kinase panel
# Assay type in all cases: biochemical
# Mer = biological target: T1, Mer (Homo sapiens, UniProt Q12866)
# T1 construct: purchased Invitrogen / ThermoFisher SelectScreen
# Protocol: (§1) The ability of NIK to catalyze the hydrolysis of adenosine-5′-triphosphate (ATP) was monitored using the Transcreener ADP (adenosine-5′-diphosphate) assay (Bell Brook Labs, Fitchburg, WI). Purified human NIK kinase domain (a.a. 340–694) (0.5 nM) or mouse NIK kinase domain (a.a. 329–675) (1 nM) derived from a baculovirus-infected insect cell expression system was incubated with test compounds for 0.5–2 h in 50 mM HEPES buffer (pH 7.2) containing 10 mM MgCl2, 2 mM dithiothreitol, 10 μM ATP, 0.01% Triton X-100, 0.1% gamma-globulins from bovine blood, 1% dimethylsulfoxide (DMSO), 7 μg/mL ADP antibody and 5 nM ADP-MR121 633 tracer. Reactions were quenched by the addition of 20 mM EDTA and 0.01% Brij 35. The tracer bound to the antibody was displaced by the ADP generated during the NIK reaction, which caused a decrease in fluorescence polarization that was measured by laser excitation at 633 nm with a Fluorescence Correlation Spectroscopy Plus reader (Evotec AG). Equilibrium dissociation constant (Ki) values for NIK inhibitors are calculated from plots of activity vs. inhibitor concentration using Morrison’s quadratic equation that accounts for the potential of tight binding, and by also applying the conversion factor that accounted for competitive inhibition and the concentration of substrate used in the assay relative to its Michaelis constant (Km). The Ki values with hPKD1 (PKCμ) were determined using the same assay conditions as for NIK. Ki measurements for hKHS1 and hLRRK2, as well as broad kinase selectivity profiling for SMI1, were carried out by Invitrogen using their SelectScreen kinase assay panel (ThermoFisher Scientific, Madison, WI). The vendor offered two types of kinase activity assays, a peptide phosphorylation assay (Z′-LYTE) and an ADP quantitation assay (Adapta), as well as one type of kinase ATP site competitive binding assay (LanthaScreen). See vendor web site for technology and protocol details for each specific kinase assay.
# (§2) The average % Inhibition of each kinase is reported (Supplementary Table 1).
# CDK1/cyclinB = biological target: T2, CDK1/cyclinB (Homo sapiens, UniProt P06493)
# T2 construct: purchased Invitrogen / ThermoFisher SelectScreen
# Protocol: as §1, §2
# mTOR = biological target: T3, mTOR (Homo sapiens, UniProt P42345)
# T3 construct: purchased Invitrogen / ThermoFisher SelectScreen
# Protocol: as §1, §2
# EphB3 = biological target: T4, EphB3 (Homo sapiens, UniProt P54753)
# T4 construct: purchased Invitrogen / ThermoFisher SelectScreen
# Protocol: as §1, §2
# GSK3_alpha = biological target: T5, GSK3_alpha (Homo sapiens, UniProt P49840)
# T5 construct: purchased Invitrogen / ThermoFisher SelectScreen
# Protocol: as §1, §2
# eEF-2K = biological target: T6, eEF-2K (Homo sapiens, UniProt O00418)
# T6 construct: purchased Invitrogen / ThermoFisher SelectScreen
# Protocol: as §1, §2
# IKK_alpha = biological target: T7, IKK_alpha (Homo sapiens, UniProt O15111)
# T7 construct: purchased Invitrogen / ThermoFisher SelectScreen
# Protocol: as §1, §2
# PKC_zeta = biological target: T8, PKC_zeta (Homo sapiens, UniProt Q05513)
# T8 construct: purchased Invitrogen / ThermoFisher SelectScreen
# Protocol: as §1, §2
# PrKX = biological target: T9, PrKX (Homo sapiens, UniProt P51817)
# T9 construct: purchased Invitrogen / ThermoFisher SelectScreen
# Protocol: as §1, §2
# CK1_alpha1 = biological target: T10, CK1_alpha1 (Homo sapiens, UniProt P48729)
# T10 construct: purchased Invitrogen / ThermoFisher SelectScreen
# Protocol: as §1, §2
# ACVR1B = biological target: T11, ACVR1B (Homo sapiens, UniProt P36896)
# T11 construct: purchased Invitrogen / ThermoFisher SelectScreen
# Protocol: as §1, §2
# EGFR (T790M,L858R) = biological target: T12, EGFR (T790M,L858R) (Homo sapiens, UniProt P00533, L858R/T790M)
# T12 construct: purchased Invitrogen / ThermoFisher SelectScreen
# Protocol: as §1, §2
# Ros = biological target: T13, Ros (Homo sapiens, UniProt P08922)
# T13 construct: purchased Invitrogen / ThermoFisher SelectScreen
# Protocol: as §1, §2
# BTK = biological target: T14, BTK (Homo sapiens, UniProt Q06187)
# T14 construct: purchased Invitrogen / ThermoFisher SelectScreen
# Protocol: as §1, §2
# AKT2 = biological target: T15, AKT2 (Homo sapiens, UniProt P31751)
# T15 construct: purchased Invitrogen / ThermoFisher SelectScreen
# Protocol: as §1, §2
# CLK2 = biological target: T16, CLK2 (Homo sapiens, UniProt P49760)
# T16 construct: purchased Invitrogen / ThermoFisher SelectScreen
# Protocol: as §1, §2
# Rse = biological target: T17, Rse (Homo sapiens, UniProt Q06418)
# T17 construct: purchased Invitrogen / ThermoFisher SelectScreen
# Protocol: as §1, §2
# ROCK2 = biological target: T18, ROCK2 (Homo sapiens, UniProt O75116)
# T18 construct: purchased Invitrogen / ThermoFisher SelectScreen
# Protocol: as §1, §2
# Srm = biological target: T19, Srm (Homo sapiens, UniProt Q9H3Y6)
# T19 construct: purchased Invitrogen / ThermoFisher SelectScreen
# Protocol: as §1, §2
# TXK = biological target: T20, TXK (Homo sapiens, UniProt P42681)
# T20 construct: purchased Invitrogen / ThermoFisher SelectScreen
# Protocol: as §1, §2
# IGF1R = biological target: T21, IGF1R (Homo sapiens, UniProt P08069)
# T21 construct: purchased Invitrogen / ThermoFisher SelectScreen
# Protocol: as §1, §2
# HIPK2 = biological target: T22, HIPK2 (Homo sapiens, UniProt Q9H2X6)
# T22 construct: purchased Invitrogen / ThermoFisher SelectScreen
# Protocol: as §1, §2
# DYRK1A = biological target: T23, DYRK1A (Homo sapiens, UniProt Q13627)
# T23 construct: purchased Invitrogen / ThermoFisher SelectScreen
# Protocol: as §1, §2
# MELK = biological target: T24, MELK (Homo sapiens, UniProt Q14680)
# T24 construct: purchased Invitrogen / ThermoFisher SelectScreen
# Protocol: as §1, §2
# Cot = biological target: T25, Cot (Homo sapiens, UniProt P41279)
# T25 construct: purchased Invitrogen / ThermoFisher SelectScreen
# Protocol: as §1, §2
# DAPK1 = biological target: T26, DAPK1 (Homo sapiens, UniProt P53355)
# T26 construct: purchased Invitrogen / ThermoFisher SelectScreen
# Protocol: as §1, §2
# PLK3 = biological target: T27, PLK3 (Homo sapiens, UniProt Q9H4B4)
# T27 construct: purchased Invitrogen / ThermoFisher SelectScreen
# Protocol: as §1, §2
# SRPK1 = biological target: T28, SRPK1 (Homo sapiens, UniProt Q96SB4)
# T28 construct: purchased Invitrogen / ThermoFisher SelectScreen
# Protocol: as §1, §2
# RSK3 = biological target: T29, RSK3 (Homo sapiens, UniProt Q15349)
# T29 construct: purchased Invitrogen / ThermoFisher SelectScreen
# Protocol: as §1, §2
# TAO1 = biological target: T30, TAO1 (Homo sapiens, UniProt Q9UL54)
# T30 construct: purchased Invitrogen / ThermoFisher SelectScreen
# Protocol: as §1, §2
# IRAK4 = biological target: T31, IRAK4 (Homo sapiens, UniProt Q9NWZ3)
# T31 construct: purchased Invitrogen / ThermoFisher SelectScreen
# Protocol: as §1, §2
# P38_gamma = biological target: T32, P38_gamma (Homo sapiens, UniProt P53778)
# T32 construct: purchased Invitrogen / ThermoFisher SelectScreen
# Protocol: as §1, §2
# T11 sequence (P36896 24-505): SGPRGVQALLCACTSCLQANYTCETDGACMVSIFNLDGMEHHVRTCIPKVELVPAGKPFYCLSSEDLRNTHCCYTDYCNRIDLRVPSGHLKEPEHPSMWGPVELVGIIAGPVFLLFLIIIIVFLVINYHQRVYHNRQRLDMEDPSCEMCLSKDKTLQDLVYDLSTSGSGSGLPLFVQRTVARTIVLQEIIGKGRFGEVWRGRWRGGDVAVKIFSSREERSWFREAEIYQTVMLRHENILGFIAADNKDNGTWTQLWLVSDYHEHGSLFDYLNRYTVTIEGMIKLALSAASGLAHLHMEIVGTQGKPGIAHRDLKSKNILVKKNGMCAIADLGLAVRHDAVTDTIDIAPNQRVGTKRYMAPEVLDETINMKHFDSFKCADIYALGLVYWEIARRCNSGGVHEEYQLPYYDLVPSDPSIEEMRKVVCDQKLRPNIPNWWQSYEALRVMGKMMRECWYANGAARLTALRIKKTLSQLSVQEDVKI
# T7 sequence (O15111 whole entry): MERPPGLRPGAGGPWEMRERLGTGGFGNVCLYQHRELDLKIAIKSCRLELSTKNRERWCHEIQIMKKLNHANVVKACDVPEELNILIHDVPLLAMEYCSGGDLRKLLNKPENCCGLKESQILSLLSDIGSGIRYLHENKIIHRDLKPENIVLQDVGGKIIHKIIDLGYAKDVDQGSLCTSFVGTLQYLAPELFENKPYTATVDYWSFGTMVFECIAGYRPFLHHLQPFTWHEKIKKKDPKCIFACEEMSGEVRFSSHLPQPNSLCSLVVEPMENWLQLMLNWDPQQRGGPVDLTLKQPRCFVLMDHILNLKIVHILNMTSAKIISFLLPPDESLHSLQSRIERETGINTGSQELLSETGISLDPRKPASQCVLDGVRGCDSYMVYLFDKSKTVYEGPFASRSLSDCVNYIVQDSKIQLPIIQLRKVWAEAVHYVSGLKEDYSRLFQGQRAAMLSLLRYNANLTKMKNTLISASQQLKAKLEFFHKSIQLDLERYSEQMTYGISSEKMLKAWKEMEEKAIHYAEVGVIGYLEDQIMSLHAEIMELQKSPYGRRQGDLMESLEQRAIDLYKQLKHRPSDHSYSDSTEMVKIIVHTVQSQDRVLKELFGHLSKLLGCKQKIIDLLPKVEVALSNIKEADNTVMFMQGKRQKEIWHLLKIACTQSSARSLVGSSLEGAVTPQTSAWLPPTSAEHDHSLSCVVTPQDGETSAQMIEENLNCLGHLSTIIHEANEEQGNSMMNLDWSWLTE
# T19 sequence (Q9H3Y6 whole entry): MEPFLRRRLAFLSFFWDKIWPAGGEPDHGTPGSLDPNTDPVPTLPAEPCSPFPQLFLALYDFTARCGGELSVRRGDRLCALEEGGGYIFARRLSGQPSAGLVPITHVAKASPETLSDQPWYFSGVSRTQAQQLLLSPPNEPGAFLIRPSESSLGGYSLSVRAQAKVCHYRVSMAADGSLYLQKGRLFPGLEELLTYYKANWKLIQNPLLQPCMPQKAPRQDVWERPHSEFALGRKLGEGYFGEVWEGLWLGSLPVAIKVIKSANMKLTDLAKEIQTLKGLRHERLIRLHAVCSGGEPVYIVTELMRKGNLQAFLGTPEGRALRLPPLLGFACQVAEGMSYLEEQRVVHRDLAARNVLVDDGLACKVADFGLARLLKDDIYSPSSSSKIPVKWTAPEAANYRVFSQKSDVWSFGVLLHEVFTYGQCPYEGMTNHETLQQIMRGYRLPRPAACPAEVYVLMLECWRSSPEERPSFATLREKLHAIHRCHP
# T9 sequence (P51817 whole entry): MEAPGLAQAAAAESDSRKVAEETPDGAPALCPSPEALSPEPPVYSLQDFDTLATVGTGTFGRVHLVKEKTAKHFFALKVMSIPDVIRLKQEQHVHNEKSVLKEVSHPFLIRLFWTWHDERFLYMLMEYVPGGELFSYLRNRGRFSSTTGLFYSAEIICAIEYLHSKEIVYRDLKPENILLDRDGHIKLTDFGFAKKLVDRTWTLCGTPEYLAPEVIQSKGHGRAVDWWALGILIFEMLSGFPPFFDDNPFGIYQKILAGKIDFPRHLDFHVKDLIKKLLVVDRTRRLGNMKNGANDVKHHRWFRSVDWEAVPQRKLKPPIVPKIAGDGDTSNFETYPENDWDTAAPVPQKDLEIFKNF
# T2 sequence (P06493 whole entry): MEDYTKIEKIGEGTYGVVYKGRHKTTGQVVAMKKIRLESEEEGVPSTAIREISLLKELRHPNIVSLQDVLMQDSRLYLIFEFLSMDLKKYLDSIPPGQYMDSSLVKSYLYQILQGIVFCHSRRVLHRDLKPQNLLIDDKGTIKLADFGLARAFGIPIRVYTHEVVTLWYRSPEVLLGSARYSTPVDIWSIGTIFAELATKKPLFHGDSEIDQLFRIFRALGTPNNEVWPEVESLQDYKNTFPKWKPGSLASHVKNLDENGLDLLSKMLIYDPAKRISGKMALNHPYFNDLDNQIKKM
# T2 sequence (P14635 whole entry partner): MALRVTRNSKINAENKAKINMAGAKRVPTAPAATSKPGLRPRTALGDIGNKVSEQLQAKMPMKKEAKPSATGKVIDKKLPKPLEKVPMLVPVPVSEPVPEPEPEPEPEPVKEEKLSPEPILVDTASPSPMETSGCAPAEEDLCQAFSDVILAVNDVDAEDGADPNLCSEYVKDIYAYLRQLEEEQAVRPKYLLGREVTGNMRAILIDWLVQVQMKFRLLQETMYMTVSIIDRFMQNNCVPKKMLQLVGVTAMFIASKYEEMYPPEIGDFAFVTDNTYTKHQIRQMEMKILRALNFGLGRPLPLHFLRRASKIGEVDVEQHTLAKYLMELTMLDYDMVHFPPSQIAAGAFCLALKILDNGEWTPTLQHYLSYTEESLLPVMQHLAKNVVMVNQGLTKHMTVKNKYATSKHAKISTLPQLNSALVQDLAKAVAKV
# T5 sequence (P49840 whole entry): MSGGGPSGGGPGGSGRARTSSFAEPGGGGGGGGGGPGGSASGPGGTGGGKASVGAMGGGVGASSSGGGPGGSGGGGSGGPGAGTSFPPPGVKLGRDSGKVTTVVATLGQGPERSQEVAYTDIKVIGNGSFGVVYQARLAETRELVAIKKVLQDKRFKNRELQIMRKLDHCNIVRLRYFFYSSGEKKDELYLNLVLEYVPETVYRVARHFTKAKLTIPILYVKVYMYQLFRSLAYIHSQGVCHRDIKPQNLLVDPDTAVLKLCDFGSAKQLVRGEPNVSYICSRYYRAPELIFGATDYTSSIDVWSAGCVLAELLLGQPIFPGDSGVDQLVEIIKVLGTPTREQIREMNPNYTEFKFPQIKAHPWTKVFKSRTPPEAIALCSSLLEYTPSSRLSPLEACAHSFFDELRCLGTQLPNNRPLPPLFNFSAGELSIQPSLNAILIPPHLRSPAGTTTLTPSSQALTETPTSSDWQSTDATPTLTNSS
# T24 sequence (Q14680 whole entry): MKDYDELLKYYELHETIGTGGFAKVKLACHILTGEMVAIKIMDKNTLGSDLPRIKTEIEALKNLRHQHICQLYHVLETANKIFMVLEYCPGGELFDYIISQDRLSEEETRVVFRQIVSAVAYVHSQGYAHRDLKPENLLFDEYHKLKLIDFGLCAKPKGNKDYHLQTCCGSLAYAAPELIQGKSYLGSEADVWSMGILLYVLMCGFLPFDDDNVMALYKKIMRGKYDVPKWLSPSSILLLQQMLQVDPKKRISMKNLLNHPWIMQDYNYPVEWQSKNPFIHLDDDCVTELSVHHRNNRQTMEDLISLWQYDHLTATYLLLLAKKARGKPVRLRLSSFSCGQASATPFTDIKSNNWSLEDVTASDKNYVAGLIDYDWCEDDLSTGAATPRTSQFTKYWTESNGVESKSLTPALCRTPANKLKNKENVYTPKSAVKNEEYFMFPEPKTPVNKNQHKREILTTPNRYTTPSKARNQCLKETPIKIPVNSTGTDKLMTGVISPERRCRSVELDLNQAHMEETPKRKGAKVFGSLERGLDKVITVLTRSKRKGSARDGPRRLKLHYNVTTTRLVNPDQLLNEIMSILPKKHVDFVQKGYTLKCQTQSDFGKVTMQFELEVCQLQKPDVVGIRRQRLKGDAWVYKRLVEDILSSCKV
# T15 sequence (P31751 whole entry): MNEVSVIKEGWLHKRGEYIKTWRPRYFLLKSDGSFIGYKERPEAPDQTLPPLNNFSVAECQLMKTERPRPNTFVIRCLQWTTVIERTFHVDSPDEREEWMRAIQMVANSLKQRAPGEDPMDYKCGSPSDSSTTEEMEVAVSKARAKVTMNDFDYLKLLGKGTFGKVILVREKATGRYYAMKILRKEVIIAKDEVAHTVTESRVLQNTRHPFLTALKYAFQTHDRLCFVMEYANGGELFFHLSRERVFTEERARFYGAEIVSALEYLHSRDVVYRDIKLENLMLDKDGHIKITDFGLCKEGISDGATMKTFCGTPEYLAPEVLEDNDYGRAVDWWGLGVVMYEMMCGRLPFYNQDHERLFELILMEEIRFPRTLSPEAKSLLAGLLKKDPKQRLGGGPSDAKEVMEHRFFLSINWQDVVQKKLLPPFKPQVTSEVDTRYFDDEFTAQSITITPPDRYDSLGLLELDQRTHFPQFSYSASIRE
# T25 sequence (P41279 whole entry): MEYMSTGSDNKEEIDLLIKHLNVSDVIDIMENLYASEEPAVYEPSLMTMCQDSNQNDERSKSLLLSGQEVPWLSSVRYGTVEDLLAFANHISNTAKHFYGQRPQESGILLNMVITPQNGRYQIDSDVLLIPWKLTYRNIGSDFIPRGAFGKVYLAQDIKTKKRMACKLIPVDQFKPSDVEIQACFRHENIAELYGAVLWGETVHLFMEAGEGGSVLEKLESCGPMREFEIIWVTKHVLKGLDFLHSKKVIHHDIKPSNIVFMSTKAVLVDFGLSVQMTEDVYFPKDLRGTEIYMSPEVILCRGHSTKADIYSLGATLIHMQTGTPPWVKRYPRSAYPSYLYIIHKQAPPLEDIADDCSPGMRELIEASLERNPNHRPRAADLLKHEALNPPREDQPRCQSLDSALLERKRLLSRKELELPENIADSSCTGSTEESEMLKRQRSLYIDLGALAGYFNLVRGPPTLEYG
smiles,measurement,setting,value
COc1cc(C(N)=O)nc(-c2cccc(C#C[C@]3(O)CCN(C)C3=O)c2)c1 [NIK SMI1],inhibition at 1 µM,Mer,3.5%
same,inhibition at 1 µM,CDK1/cyclinB,8.5%
same,inhibition at 1 µM,mTOR,-1%
same,inhibition at 1 µM,EphB3,5.5%
same,inhibition at 1 µM,GSK3_alpha,15%
same,inhibition at 1 µM,eEF-2K,4%
same,inhibition at 1 µM,IKK_alpha,3.1%
same,inhibition at 1 µM,PKC_zeta,7%
same,inhibition at 1 µM,PrKX,11%
same,inhibition at 1 µM,CK1_alpha1,2%
same,inhibition at 1 µM,ACVR1B,2%
same,inhibition at 1 µM,"EGFR (T790M,L858R)",9.5%
same,inhibition at 1 µM,Ros,12.5%
same,inhibition at 1 µM,BTK,-3%
same,inhibition at 1 µM,AKT2,13%
same,inhibition at 1 µM,CLK2,25%
same,inhibition at 1 µM,Rse,12%
same,inhibition at 1 µM,ROCK2,7.5%
same,inhibition at 1 µM,Srm,12%
same,inhibition at 1 µM,TXK,4.5%
same,inhibition at 1 µM,IGF1R,8.5%
same,inhibition at 1 µM,HIPK2,17.5%
same,inhibition at 1 µM,DYRK1A,4.5%
same,inhibition at 1 µM,MELK,26.5%
same,inhibition at 1 µM,Cot,34.5%
same,inhibition at 1 µM,DAPK1,15.1%
same,inhibition at 1 µM,PLK3,9%
same,inhibition at 1 µM,SRPK1,8.5%
same,inhibition at 1 µM,RSK3,5%
same,inhibition at 1 µM,TAO1,17%
same,inhibition at 1 µM,IRAK4,-1.5%
same,inhibition at 1 µM,P38_gamma,14%

# From publication PMC5766581, “NF-κB inducing kinase is a therapeutic target for systemic lupus erythematosus” (Nature Communications, 2018)
